Results from patent US6479487B1, “6, 9-disubstituted 2-[trans-(4-aminocyclohexyl)amino] purines” (Aventis Pharmaceuticals Inc., priority 1998, dated 2002).
Where “and” joins values, the source holds several entries; their conditions need not be identical. Equal values may be shown once. Where a name gives a salt, the structure may show the parent alone. Read-outs that look alike come from different tables or passages of the source.

Legend:
[1] = test system: PC-3; assay: In vitro tumor cell proliferation, PC-3; type: cell-based, human; details: many values given with an undefined *, read-out: In vitro Tumor Cell Proliferation (IC50, μM) Prostate PC-3
In short: (§1)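 Two read-outs were used: sulforhodamine B after 3 + 4 days of drug with re-dosing at medium change, or CyQUANT after 3 days of drug and freezing of plates at −80° C for at least 30 minutes.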

[2] = test system: MDA-MB-231; assay: In vitro tumor cell proliferation, MDA-MB-231; type: cell-based, human; details: sulforhodamine B or CyQUANT assay, many values given with an undefined *, read-out: In vitro Tumor Cell Proliferation (IC50, μM) Breast MDA-MB-231
In short: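 Cells plated overnight at 37 °C, then exposed to drug for 3 days, refed with fresh drug and incubated 4 more days. Read-out by sulforhodamine B staining after TCA fixation; alternatively, CyQUANT after 3-day drug exposure and freezing at −80 °C.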

[3] = test system: HT-29; assay: In vitro tumor cell proliferation, HT-29; type: cell-based, human; details: many values given with an undefined *, read-out: In vitro Tumor Cell Proliferation (IC50, μM) Colon HT-29
In short: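 HT-29 cells seeded overnight at 37° C, then exposed to drug for 3 days, refed with fresh drug-containing medium for 4 more days. Proliferation read by sulforhodamine B staining after TCA fixation; alternatively by CyQUANT after freezing plates at −80° C following 3 days' drug exposure.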

[4] = biological target: T1, cdk4/cyclin D1 (Homo sapiens, UniProt P11802); assay: Cyclin-dependent Kinase 4 Assay (cdk4/cyclin D1, GST-Rb substrate); type: biochemical; details: cdk4/cyclin D1 insect cell lysate, 10 μM ATP, 30 min at 37° C., several values = separate determinations, read-out: CDK4 Inhibition IC50
T1 construct: made in house; host or cells: Sf9 insect cells (Bac-to-Bac baculovirus, pFastBac)
T1 sequence (P11802 whole entry): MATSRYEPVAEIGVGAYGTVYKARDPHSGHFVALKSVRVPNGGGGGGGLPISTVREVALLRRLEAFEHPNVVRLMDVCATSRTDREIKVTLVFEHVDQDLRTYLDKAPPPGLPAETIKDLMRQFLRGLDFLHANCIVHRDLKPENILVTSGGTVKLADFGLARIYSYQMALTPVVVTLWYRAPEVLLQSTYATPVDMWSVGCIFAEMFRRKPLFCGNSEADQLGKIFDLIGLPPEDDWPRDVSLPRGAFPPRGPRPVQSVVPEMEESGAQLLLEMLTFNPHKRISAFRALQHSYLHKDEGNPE
T1 sequence (P24385 whole entry partner): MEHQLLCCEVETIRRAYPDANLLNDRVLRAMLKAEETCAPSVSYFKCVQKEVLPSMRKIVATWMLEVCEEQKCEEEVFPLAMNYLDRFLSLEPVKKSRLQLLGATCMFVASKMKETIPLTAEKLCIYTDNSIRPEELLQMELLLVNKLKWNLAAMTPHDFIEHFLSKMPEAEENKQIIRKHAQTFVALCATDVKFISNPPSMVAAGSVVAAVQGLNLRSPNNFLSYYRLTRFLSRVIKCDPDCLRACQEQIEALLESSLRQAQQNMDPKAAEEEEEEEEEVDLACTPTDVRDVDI
In short: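 Insect-cell lysate of coexpressed cdk4/cyclin D1 (0.1 μg) acts on GST-Rb (0.5 μg) bound to glutathione-Sepharose, in 50 mM HEPES pH 7.5, 10 mM MgCl2, 1 mM EGTA. Reaction runs 30 min at 37 °C, then is stopped by filtration and TNEN washes. Rb phosphorylation read by scintillation counting; IC50 derived.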

[5] = test system: DMS-114; assay: In vitro tumor cell proliferation, DMS-114; type: cell-based, human; details: many values given with an undefined *, read-out: In vitro Tumor Cell Proliferation (IC50, μM) Lung DMS-114
In short: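 Human small cell lung carcinoma DMS-114 cells plated overnight, then drug-treated for 3 days, medium and drug renewed, and incubated 4 more days. Growth read by sulforhodamine B staining after TCA fixation; alternatively by CyQUANT after 3 days' drug exposure and freezing at −80 °C.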

[6] = test system: DU145; assay: In vitro tumor cell proliferation, DU145; type: cell-based, human; details: many values given with an undefined *, read-out: In vitro Tumor Cell Proliferation (IC50, μM) Prostate DU145
In short: as §1

[7] = test system: MDA-MB-435; assay: In vitro tumor cell proliferation, MDA-MB-435; type: cell-based; details: values given with an undefined *, read-out: In vitro Tumor Cell Proliferation (IC50, μM) Breast MDA-MB-435
In short: as §1

[8] = test system: Colo-205; assay: In vitro tumor cell proliferation, Colo-205; type: cell-based; details: values given with an undefined *, read-out: In vitro Tumor Cell Proliferation (IC50, μM) Colon Colo-205
In short: as §1

[9] = test system: A549; assay: In vitro tumor cell proliferation, A549; type: cell-based, human; details: many values given with an undefined *, read-out: In vitro Tumor Cell Proliferation (IC50, μM) Lung A549
In short: as §1

[10] = biological target: T2, cdk2/cyclin E (Homo sapiens, UniProt P24941); assay: Cyclin-Dependent Kinase 2 Assay (cdk2/cyclin E, GST-Rb substrate); type: biochemical; details: recombinant cdk2/cyclin E, 10 μM ATP, 30 min at 30° C., several values in a cell = separate determinations, read-out: CDK-2 Inhibition IC50
T2 construct: made in house; host or cells: insect cells (baculovirus co-infection)
Experimental: Substrate: GST-Rb as described above for cdk4/cyclin D1
Assay conditions for cdk2/cyclin E were identical to those for cdk4/cyclin D1 including the substrate. The concentration of recombinant cdk2/cyclin E in the assay was 0.1 μg per 100 μl assay. Incubation was for 30 min at 30° C.

[11] = Homo sapiens, MDA-MB-231, MDA-MB-231
[12] = Homo sapiens, MDA-MB-435, MDA-MB-435
[13] = Homo sapiens, COLO 205, Colo-205

Compound	IC50 ([1]; Homo sapiens, PC-3, PC-3) [µM]	IC50 ([1]; PC-3, trihydrochloride) [µM]	IC50 [2, 11] [µM]	IC50 ([2]; MDA-MB-231, trihydrochloride) [µM]	IC50 ([3]; HT-29, trihydrochloride) [µM]	IC50 ([3]; Homo sapiens, HT-29, HT-29) [µM]	IC50 [4]	IC50 ([5]; DMS-114, trihydrochloride) [µM]	IC50 ([5]; Homo sapiens, DMS-114, DMS-114) [µM]	IC50 ([6]; DU145, trihydrochloride) [µM]	IC50 ([6]; Homo sapiens, DU-145, DU145) [µM]	IC50 [7, 12] [µM]	IC50 ([7]; MDA-MB-435, trihydrochloride) [µM]	IC50 ([8]; Colo-205, trihydrochloride) [µM]	IC50 [8, 13] [µM]	IC50 ([9]; A549, trihydrochloride) [µM]	IC50 ([9]; Homo sapiens, A549, A549) [µM]	IC50 [10]	other results
N[C@H]1CC[C@H](Nc2nc(NC3CCN(Cc4ccc(Cl)c(Cl)c4)CC3)c3ncn(C4CCCC4)c3n2)CC1 [Example 147-o, 2-[Trans-(4-aminocyclohexyl)amino]-6-[4-[1-(3,4-dichlorobenzyl)]piperidinylamino]-9-cyclopentylpurine trihydrochloride]	0.64	0.92	0.77	0.9	0.77	0.83	1800 nM	0.71	0.78	0.69	0.76	0.92	1.1	0.45	0.63	0.44	0.42	200 nM and 160 nM	–
N[C@H]1CC[C@H](Nc2nc(Nc3ccc(OC(F)(F)F)cc3)c3ncn(C4CCCC4)c3n2)CC1 [Example 5, 2-[Trans-(4-aminocyclohexyl)amino]-6-[(4-trifluoromethoxy)phenylamino]-9-cyclopentylpurine dihydrochloride]	1.1	–	0.78	–	–	1	400 nM and 700 nM	–	0.47	–	0.56	1.3	–	–	1	–	0.35	230 nM	IC50 ([1]; PC-3, dihydrochloride): 0.7 µM; IC50 ([2]; MDA-MB-231, dihydrochloride): 0.87 µM; IC50 ([3]; HT-29, dihydrochloride): 1.1 µM; IC50 ([6]; DU145, dihydrochloride): 0.7 µM; IC50 ([7]; MDA-MB-435, dihydrochloride): 1.5 µM; IC50 ([8]; Colo-205, dihydrochloride): 1.2 µM; IC50 ([9]; A549, dihydrochloride): 0.53 µM
N[C@H]1CC[C@H](Nc2nc(NC3(CO)CCCC3)c3ncn(C4CCCC4)c3n2)CC1 [Example 146, (R,S)-2-[Trans-(4-aminocyclohexyl)amino]-6-[(1-hydroxymethyl)cyclopentylamino]-9-cyclopentylpurine dihydrochloride]	11	–	–	–	–	16	1600 nM and 810 nM and 500 nM	–	–	–	12	–	–	–	12	–	12	164 nM	IC50 ([1]; PC-3, dihydrochloride): 10 µM; IC50 ([2]; MDA-MB-231, dihydrochloride): 12 µM; IC50 ([3]; HT-29, dihydrochloride): 11 µM; IC50 ([5]; DMS-114, dihydrochloride): 11 µM; IC50 ([6]; DU145, dihydrochloride): 16 µM; IC50 ([7]; MDA-MB-435, dihydrochloride): 21 µM
N[C@H]1CC[C@H](Nc2nc(NC3CCN(Cc4ccccc4)CC3)c3ncn(C4CCCC4)c3n2)CC1 [Example 33, 2-[Trans-(4-aminocyclohexyl)amino]-6-[4-(1-benzyl)piperidinylamino]-9-cyclopentylpurine trihydrochloride]	0.2	0.18	0.17	0.21	0.21	0.19	410 nM	0.13	0.19	–	0.15	0.26	0.28	–	0.18	–	0.12	190 nM and 140 nM	–

Continued by falling IC50 ([3]; Homo sapiens, HT-29, HT-29), values first:

IC50 ([1]; Homo sapiens, PC-3, PC-3) [µM]	IC50 ([1]; PC-3, trihydrochloride) [µM]	IC50 [2, 11] [µM]	IC50 ([2]; MDA-MB-231, trihydrochloride) [µM]	IC50 ([3]; HT-29, trihydrochloride) [µM]	IC50 ([3]; Homo sapiens, HT-29, HT-29) [µM]	IC50 [4]	IC50 ([5]; DMS-114, trihydrochloride) [µM]	IC50 ([5]; Homo sapiens, DMS-114, DMS-114) [µM]	IC50 ([6]; DU145, trihydrochloride) [µM]	IC50 ([6]; Homo sapiens, DU-145, DU145) [µM]	IC50 [7, 12] [µM]	IC50 ([7]; MDA-MB-435, trihydrochloride) [µM]	IC50 ([8]; Colo-205, trihydrochloride) [µM]	IC50 [8, 13] [µM]	IC50 ([9]; A549, trihydrochloride) [µM]	IC50 ([9]; Homo sapiens, A549, A549) [µM]	IC50 [10]	Compound	other results
0.35	0.43	0.33	0.36	0.33	0.41	2800 nM and 2600 nM	0.35	0.62	0.28	0.38	0.47	0.48	0.22	0.28	0.19	0.27	150 nM and 110 nM	N[C@H]1CC[C@H](Nc2nc(NC3CCN(Cc4ccc(F)c(F)c4)CC3)c3ncn(C4CCCC4)c3n2)CC1 [Example 147-u, 2-[Trans-(4-aminocyclohexyl)amino]-6-[4-[1-(3,4-difluorobenzyl)]piperidinylamino]-9-cyclopentylpurine trihydrochloride]	–
–	0.37	–	0.33	0.33	0.35	1300 nM and 620 nM	0.3	0.57	0.27	0.29	0.42	0.43	0.23	0.28	0.2	0.22	120 nM and 100 nM	N[C@H]1CC[C@H](Nc2nc(NC3CCN(CC4CCCCC4)CC3)c3ncn(C4CCCC4)c3n2)CC1 [Example 147-s, 2-[Trans-(4-aminocyclohexyl)amino]-6-[4-(1-cyclohexylmethyl)piperidinylamino]-9-cyclopentylpurine trihydrochloride]	–
0.17	0.26	0.2	0.21	0.22	0.3	1300 nM and 720 nM	0.25	0.37	0.2	0.21	0.27	0.3	–	0.17	0.14	0.15	200 nM and 210 nM	N[C@H]1CC[C@H](Nc2nc(NC3CCN(Cc4cccc(F)c4)CC3)c3ncn(C4CCCC4)c3n2)CC1 [Example 147-j, 2-[Trans-(4-aminocyclohexyl)amino]-6-[4-[1-(3-fluorobenzyl)]piperidinylamino]-9-cyclopentylpurine trihydrochloride]	–
